Our source for the IC50 values is patent US9670161B2, “5-fluoro-N-(pyridin-2-yl)pyridin-2-amine derivatives containing a sulfone group” (BAYER PHARMA AKTIENGESELLSCHAFT, priority 2012, dated 2017).

For experiment [1], the system named is NCI-H460, human non-small cell lung carcinoma cells. Description: Proliferation assay, NCI-H460 (crystal violet). To be noted: 96 h, NCI-H460, 4 days, read-out: Inhibition of NCI-H460 cell proliferation IC50. Type of experiment: cell-based. As for the experimental part: (§1) Cultivated tumour cells (HeLa, human cervical tumour cells, ATCC CCL-2; NCI-H460, human non-small cell lung carcinoma cells, ATCC HTB-177; A2780, human ovarian carcinoma cells, ECACC #93112519; DU 145, hormone-independent human prostate carcinoma cells, ATCC HTB-81; HeLa-MaTu-ADR, multidrug-resistant human cervical carcinoma cells, EPO-GmbH Berlin; Caco-2, human colorectal carcinoma cells, ATCC HTB-37; B16F10, mouse melanoma cells, ATCC CRL-6475) were plated at a density of 5,000 cells/well (DU145, HeLa-MaTu-ADR), 3,000 cells/well (NCI-H460, HeLa), 2,500 cells/well (A2780), 1,500 cells/well (Caco-2), or 1,000 cells/well (B16F10) in a 96-well multititer plate in 200 μL of their respective growth medium supplemented 10% fetal calf serum. […] Cell proliferation was determined by staining the cells with crystal violet: the cells were fixed by adding 20 μl/measuring point of an 11% glutaric aldehyde solution for 15 minutes at room temperature. […] The extinction was determined by photometry at a wavelength of 595 nm. The change of cell number, in percent, was calculated by normalization of the measured values to the extinction values of the zero-point plate (=0%) and the extinction of the untreated (0 μm) cells (=100%). […]

Experiment [2] relates to DU 145, hormone-independent human prostate carcinoma cells. Description: Proliferation assay, DU145 (crystal violet). Type of experiment: cell-based. The note with it: DU-145, 96 h, DU145, 4 days, read-out: Inhibition of DU145 cell proliferation IC50. As for the experimental part:
as §1

The next experiment has as its target CDK2/CycE (Homo sapiens (Human), UniProt P24941). The experiment in a line: CDK2/CycE kinase assay (TR-FRET, 10 μM ATP). Type of experiment: biochemical. To be noted: Method 2a. The text has this: 2a. CDK2/CycE Kinase Assay:
CDK2/CycE-inhibitory activity of compounds of the present invention was quantified employing the CDK2/CycE TR-FRET assay as described in the following paragraphs:
Recombinant fusion proteins of GST and human CDK2 and of GST and human CycE, expressed in insect cells (Sf9) and purified by Glutathion-Sepharose affinity chromatography, were purchased from ProQinase GmbH (Freiburg, Germany). As substrate for the kinase reaction biotinylated peptide biotin-Ttds-YISPLKSPYKISEG (C-terminus in amid form) was used which can be purchased e.g. form the company JERINI Peptide Technologies (Berlin, Germany).
For the assay 50 nl of a 100 fold concentrated solution of the test compound in DMSO was pipetted into a black low volume 384 well microtiter plate (Greiner Bio-One, Frickenhausen, Germany), 2 μl of a solution of CDK2/CycE in aqueous assay buffer [50 mM Tris/HCl pH 8.0, 10 mM MgCl2, 1.0 mM dithiothreitol, 0.1 mM sodium ortho-vanadate, 0.01% (v/v) Nonidet-P40 (Sigma)] were added and the mixture was incubated for 15 min at 22° C. to allow pre-binding of the test compounds to the enzyme before the start of the kinase reaction. Then the kinase reaction was started by the addition of 3 μl of a solution of adenosine-tri-phosphate (ATP, 16.7 μM=>final conc. in the 5 μl assay volume is 10 μM) and substrate (1.25 μM=>final conc. in the 5 μl assay volume is 0.75 μM) in assay buffer and the resulting mixture was incubated for a reaction time of 25 min at 22° C. The concentration of CDK2/CycE was adjusted depending of the activity of the enzyme lot and was chosen appropriate to have the assay in the linear range, typical concentrations were in the range of 130 ng/mL. The reaction was stopped by the addition of 5 μl of a solution of TR-FRET detection reagents (0.2 μM streptavidine-XL665 [Cisbio Bioassays, Codolet, France] and 1 nM anti-RB(pSer807/pSer811)-antibody from BD Pharmingen [#558389] and 1.2 nM LANCE EU-W1024 labeled anti-mouse IgG antibody [Perkin-Elmer, product no. AD0077]) in an aqueous EDTA-solution (100 mM EDTA, 0.2% (w/v) bovine serum albumin in 100 mM HEPES/NaOH pH 7.0).
The resulting mixture was incubated 1 h at 22° C. to allow the formation of complex between the phosphorylated biotinylated peptide and the detection reagents. Subsequently the amount of phosphorylated substrate was evaluated by measurement of the resonance energy transfer from the Eu-chelate to the streptavidine-XL. Therefore, the fluorescence emissions at 620 nm and 665 nm after excitation at 350 nm was measured in a TR-FRET reader, e.g. a Rubystar (BMG Labtechnologies, Offenburg, Germany) or a Viewlux (Perkin-Elmer). The ratio of the emissions at 665 nm and at […] was taken as the measure for the amount of phosphorylated substrate. The data were normalised (enzyme reaction without inhibitor=0% inhibition, all other assay components but no enzyme=100% inhibition).

Experiment [3] concerns Caco-2, human colorectal carcinoma cells. Description: Proliferation assay, Caco-2 (crystal violet). Type of experiment: cell-based. The note with it: 96 h, Caco-2, 4 days, read-out: Inhibition of Caco-2 cell proliferation IC50. As for the experimental part:
as §1

In experiment [4] the test system is B16F10, mouse melanoma cells. Description: Proliferation assay, B16F10 (crystal violet). To be noted: B16-F10, 96 h, B16F10, 4 days, read-out: Inhibition of B16F10 cell proliferation IC50. Type of experiment: cell-based. As for the experimental part: as §1
Experiment [5] relates to A2780, human ovarian carcinoma cells. The experiment in a line: Proliferation assay, A2780 (crystal violet). The note with it: 96 h, A2780, 4 days, read-out: Inhibition of A2780 cell proliferation IC50. Type of experiment: cell-based. As for the experimental part: as §1
Experiment [6] relates to HeLa-MaTu-ADR, multidrug-resistant human cervical carcinoma cells. The experiment in a line: Proliferation assay, HeLa-MaTu-ADR (crystal violet). Type of experiment: cell-based. To be noted: 96 h, 4 days, read-out: Inhibition of HeLa-MaTu-ADR cell proliferation IC50. As for the experimental part: as §1

For `COc1cc(F)ccc1-c1cc(Nc2cc(CS(C)(=O)=O)ccn2)ncc1F` [Example 1, 5-Fluoro-4-(4-fluoro-2-methoxyphenyl)-N-{4-[(methylsulfonyl)methyl]pyridin-2-yl}pyridin-2-amine], the IC50 in experiment [1] amounted to 62 nM; in experiment [2], 56 nM; at CDK2/CycE, 170 nM; in experiment [3] it was 70 nM; in experiment [4], 100 nM; in experiment [5] it was 28 nM. Also, in experiment [6], the IC50 is 37 nM.

`COc1cc(F)ccc1-c1cc(Nc2cc(CS(C)(=O)=O)cc(C)n2)ncc1F` [Example 2, 5-Fluoro-4-(4-fluoro-2-methoxyphenyl)-N-{6-methyl-4-[(methylsulfonyl)methyl]pyridin-2-yl}pyridin-2-amine]: the IC50 came out at 94 nM in experiment [1]; 84 nM in experiment [2]; 70 nM at CDK2/CycE; 37 nM in experiment [3]; 100 nM in experiment [4]; 59 nM in experiment [6].

As to `COc1cc(F)ccc1-c1cc(Nc2cc(CS(C)(=O)=O)cc(F)n2)ncc1F` [Example 3, 5-Fluoro-4-(4-fluoro-2-methoxyphenyl)-N-{6-fluoro-4-[(methylsulfonyl)methyl]pyridin-2-yl}pyridin-2-amine], the IC50 at CDK2/CycE amounted to 65 nM.

With `COc1cc(F)ccc1-c1cc(Nc2cc(CS(C)(=O)=O)cc(C(F)(F)F)n2)ncc1F` [Example 4, 5-Fluoro-4-(4-fluoro-2-methoxyphenyl)-N-{4-[(methylsulfonyl)methyl]-6-(trifluoromethyl)pyridin-2-yl}pyridin-2-amine], on CDK2/CycE, the IC50 was found to be 52 nM.

At CDK2/CycE, `COc1cc(F)ccc1-c1cc(Nc2cc(CS(C)(=O)=O)cc(C(F)F)n2)ncc1F` [Example 5, N-{6-(Difluoromethyl)-4-[(methylsulfonyl)methyl]pyridin-2-yl}-5-fluoro-4-(4-fluoro-2-methoxyphenyl)pyridin-2-amine] displayed an IC50 of 7 nM.
